Measurements as given in PubChem BioAssay (NCI).
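Test compounds were applied to cells in 96-well plates for 48 hours at 5 doses. TGI is the concentration that stops growth completely.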

Tests used:
Experiment in all cases: NCI anticancer screen, dose series, 48 h
786-0 renal = tested on: 786-0 renal
A498 renal = tested on: A498 renal
A549 NSCLC = tested on: A549 NSCLC
ACHN renal = tested on: ACHN renal
BT-549 breast = tested on: BT-549 breast
CAKI-1 renal = tested on: CAKI-1 renal
COLO 205 colon = tested on: COLO 205 colon
DU-145 prostate = tested on: DU-145 prostate
EKVX NSCLC = tested on: EKVX NSCLC
HCC-2998 colon = tested on: HCC-2998 colon
HCT-116 colon = tested on: HCT-116 colon
HCT-15 colon = tested on: HCT-15 colon
HL-60(TB) leukemia = tested on: HL-60(TB) leukemia
HOP-62 NSCLC = tested on: HOP-62 NSCLC
HOP-92 NSCLC = tested on: HOP-92 NSCLC
HS 578T breast = tested on: HS 578T breast
HT29 colon = tested on: HT29 colon
IGROV1 ovarian = tested on: IGROV1 ovarian
K-562 leukemia = tested on: K-562 leukemia
KM12 colon = tested on: KM12 colon
LOX IMVI melanoma = tested on: LOX IMVI melanoma
M14 melanoma = tested on: M14 melanoma
MALME-3M melanoma = tested on: MALME-3M melanoma
MCF7 breast = tested on: MCF7 breast
MDA-MB-231 breast = tested on: MDA-MB-231 breast
MDA-MB-435 = tested on: MDA-MB-435
MDA-N = tested on: MDA-N
MOLT-4 leukemia = tested on: MOLT-4 leukemia
NCI-H226 lung = tested on: NCI-H226 lung
NCI-H23 lung = tested on: NCI-H23 lung
NCI-H460 lung = tested on: NCI-H460 lung
NCI-H522 lung = tested on: NCI-H522 lung
NCI/ADR-RES ovarian = tested on: NCI/ADR-RES ovarian
OVCAR-3 ovarian = tested on: OVCAR-3 ovarian
OVCAR-4 ovarian = tested on: OVCAR-4 ovarian
OVCAR-5 ovarian = tested on: OVCAR-5 ovarian
OVCAR-8 ovarian = tested on: OVCAR-8 ovarian
PC-3 prostate = tested on: PC-3 prostate
RPMI-8226 leukemia = tested on: RPMI-8226 leukemia
SF-268 CNS = tested on: SF-268 CNS
SF-295 CNS = tested on: SF-295 CNS
SF-539 CNS = tested on: SF-539 CNS
SK-MEL-2 melanoma = tested on: SK-MEL-2 melanoma
SK-MEL-28 melanoma = tested on: SK-MEL-28 melanoma
SK-MEL-5 melanoma = tested on: SK-MEL-5 melanoma
SK-OV-3 ovarian = tested on: SK-OV-3 ovarian
SN12C renal = tested on: SN12C renal
SNB-19 CNS = tested on: SNB-19 CNS
SNB-75 CNS = tested on: SNB-75 CNS
SR leukemia = tested on: SR leukemia
SW-620 colon = tested on: SW-620 colon
T-47D breast = tested on: T-47D breast
U251 CNS = tested on: U251 CNS
UACC-257 melanoma = tested on: UACC-257 melanoma
UO-31 renal = tested on: UO-31 renal
CCRF-CEM leukemia = tested on: CCRF-CEM leukemia
RXF 393 renal = tested on: RXF 393 renal
TK-10 renal = tested on: TK-10 renal
UACC-62 melanoma = tested on: UACC-62 melanoma

In the case of `C/C(=N\NC(=S)Nc1ccccc1)c1nc2ncccc2[nH]1`, the TGI (786-0 renal) is reported as 74 µM, the TGI (A498 renal) is reported as 33.1 µM and the TGI (A549 NSCLC) is reported as greater than 100 µM. It also gave a TGI (ACHN renal) of 47.8 µM, a TGI (BT-549 breast) of 26.2 µM and a TGI (CAKI-1 renal) greater than 100 µM. For the same compound, the TGI (COLO 205 colon) was greater than 100 µM, the TGI (DU-145 prostate) was 18.2 µM and the TGI (EKVX NSCLC) was 6.12 µM. For the same compound, the TGI (HCC-2998 colon) was 20.5 µM, the TGI (HCT-116 colon) was 14 µM and the TGI (HCT-15 colon) was 19.8 µM. For the same compound, the TGI (HL-60(TB) leukemia) was greater than 100 µM, the TGI (HOP-62 NSCLC) was 59 µM and the TGI (HOP-92 NSCLC) was greater than 100 µM. The TGI (HS 578T breast) was 77.7 µM, the TGI (HT29 colon) was 18.8 µM and the TGI (IGROV1 ovarian) was 24.2 µM. For the same compound, the TGI (K-562 leukemia) was 60.8 µM, the TGI (KM12 colon) was greater than 100 µM and the TGI (LOX IMVI melanoma) was 15.8 µM. For the same compound, the TGI (M14 melanoma) was greater than 100 µM, the TGI (MALME-3M melanoma) was 57.7 µM and the TGI (MCF7 breast) was 20.3 µM. For the same compound, the TGI (MDA-MB-231 breast) was 55.5 µM, the TGI (MDA-MB-435) was 60.3 µM and the TGI (MDA-N) was greater than 100 µM. The TGI (MOLT-4 leukemia) was 16.8 µM, the TGI (NCI-H226 lung) was 13.2 µM and the TGI (NCI-H23 lung) was 48.7 µM. The TGI (NCI-H460 lung) was 13.8 µM, the TGI (NCI-H522 lung) was 17.1 µM and the TGI (NCI/ADR-RES ovarian) was 22 µM. For the same compound, the TGI (OVCAR-3 ovarian) was 17.1 µM, the TGI (OVCAR-4 ovarian) was 47.4 µM and the TGI (OVCAR-5 ovarian) was 61 µM. The TGI (OVCAR-8 ovarian) was 16 µM, the TGI (PC-3 prostate) was greater than 100 µM and the TGI (RPMI-8226 leukemia) was 84.4 µM. For the same compound, the TGI (SF-268 CNS) was 39 µM, the TGI (SF-295 CNS) was 18.3 µM and the TGI (SF-539 CNS) was 6.8 µM. The TGI (SK-MEL-2 melanoma) was 47 µM, the TGI (SK-MEL-28 melanoma) was 6.79 µM and the TGI (SK-MEL-5 melanoma) was 15 µM. For the same compound, the TGI (SK-OV-3 ovarian) was greater than 100 µM, the TGI (SN12C renal) was 36.3 µM and the TGI (SNB-19 CNS) was 60.1 µM. The TGI (SNB-75 CNS) was 79.2 µM, the TGI (SR leukemia) was greater than 100 µM and the TGI (SW-620 colon) was greater than 100 µM. For the same compound, the TGI (T-47D breast) was 24 µM, the TGI (U251 CNS) was 16.9 µM and the TGI (UACC-257 melanoma) was 11.1 µM. It also gave a TGI (UO-31 renal) of 7.47 µM.

In the case of `c1cc(-c2ccc(-c3ccc(C4=NCCCN4)cc3)o2)ccc1C1=NCCCN1`, the TGI (786-0 renal) is reported as greater than 100 µM, the TGI (A498 renal) is reported as 13.4 µM and the TGI (A549 NSCLC) is reported as greater than 100 µM. It also gave a TGI (ACHN renal) greater than 100 µM, a TGI (BT-549 breast) greater than 100 µM and a TGI (CAKI-1 renal) greater than 100 µM. For the same compound, the TGI (CCRF-CEM leukemia) was greater than 100 µM, the TGI (COLO 205 colon) was greater than 100 µM and the TGI (DU-145 prostate) was greater than 100 µM. The TGI (EKVX NSCLC) was greater than 100 µM, the TGI (HCC-2998 colon) was greater than 100 µM and the TGI (HCT-116 colon) was greater than 100 µM. For the same compound, the TGI (HCT-15 colon) was greater than 100 µM, the TGI (HL-60(TB) leukemia) was greater than 100 µM and the TGI (HOP-62 NSCLC) was greater than 100 µM. For the same compound, the TGI (HOP-92 NSCLC) was greater than 100 µM, the TGI (HS 578T breast) was greater than 100 µM and the TGI (HT29 colon) was greater than 100 µM. It also gave a TGI (K-562 leukemia) greater than 100 µM, a TGI (KM12 colon) greater than 100 µM and a TGI (LOX IMVI melanoma) greater than 100 µM. For the same compound, the TGI (M14 melanoma) was greater than 100 µM, the TGI (MALME-3M melanoma) was greater than 100 µM and the TGI (MCF7 breast) was greater than 100 µM. It also gave a TGI (MDA-MB-231 breast) greater than 100 µM, a TGI (MDA-MB-435) greater than 100 µM and a TGI (MDA-N) greater than 100 µM. For the same compound, the TGI (MOLT-4 leukemia) was greater than 100 µM, the TGI (NCI-H226 lung) was greater than 100 µM and the TGI (NCI-H23 lung) was greater than 100 µM. The TGI (NCI-H460 lung) was greater than 100 µM, the TGI (NCI-H522 lung) was greater than 100 µM and the TGI (NCI/ADR-RES ovarian) was greater than 100 µM. The TGI (OVCAR-3 ovarian) was greater than 100 µM, the TGI (OVCAR-4 ovarian) was greater than 100 µM and the TGI (OVCAR-5 ovarian) was greater than 100 µM. The TGI (OVCAR-8 ovarian) was greater than 100 µM, the TGI (PC-3 prostate) was greater than 100 µM and the TGI (RXF 393 renal) was greater than 100 µM. The TGI (SF-268 CNS) was greater than 100 µM, the TGI (SF-295 CNS) was greater than 100 µM and the TGI (SF-539 CNS) was greater than 100 µM. It also gave a TGI (SK-MEL-2 melanoma) greater than 100 µM, a TGI (SK-MEL-28 melanoma) greater than 100 µM and a TGI (SK-MEL-5 melanoma) greater than 100 µM. It also gave a TGI (SK-OV-3 ovarian) greater than 100 µM, a TGI (SN12C renal) of 95.7 µM and a TGI (SNB-19 CNS) greater than 100 µM. The TGI (SNB-75 CNS) was greater than 100 µM, the TGI (SR leukemia) was greater than 100 µM and the TGI (SW-620 colon) was greater than 100 µM. It also gave a TGI (T-47D breast) greater than 100 µM, a TGI (TK-10 renal) greater than 100 µM and a TGI (U251 CNS) greater than 100 µM. It also gave a TGI (UACC-257 melanoma) greater than 100 µM, a TGI (UACC-62 melanoma) greater than 100 µM and a TGI (UO-31 renal) greater than 100 µM.

Work on `COc1cc(C)c2c(c1C=O)Oc1c(c(C)c(O)c3c1C(O)OC3=O)OC2=O` (configuration not stated) yielded a TGI (786-0 renal) greater than 100 µM, a TGI (A498 renal) greater than 100 µM and a TGI (A549 NSCLC) greater than 100 µM. The TGI (ACHN renal) was greater than 100 µM, the TGI (BT-549 breast) was greater than 100 µM and the TGI (CAKI-1 renal) was greater than 100 µM. It also gave a TGI (COLO 205 colon) greater than 100 µM, a TGI (DU-145 prostate) greater than 100 µM and a TGI (EKVX NSCLC) greater than 100 µM. It also gave a TGI (HCC-2998 colon) of 44.5 µM, a TGI (HCT-116 colon) greater than 100 µM and a TGI (HCT-15 colon) of 46.4 µM. The TGI (HL-60(TB) leukemia) was 48.4 µM, the TGI (HOP-62 NSCLC) was greater than 100 µM and the TGI (HOP-92 NSCLC) was greater than 100 µM. It also gave a TGI (HS 578T breast) greater than 100 µM, a TGI (HT29 colon) greater than 100 µM and a TGI (IGROV1 ovarian) of 60.9 µM. For the same compound, the TGI (KM12 colon) was 52.3 µM, the TGI (LOX IMVI melanoma) was greater than 100 µM and the TGI (M14 melanoma) was greater than 100 µM. It also gave a TGI (MALME-3M melanoma) of 52.6 µM, a TGI (MCF7 breast) of 74 µM and a TGI (MDA-MB-231 breast) of 68.3 µM. The TGI (MDA-MB-435) was greater than 100 µM, the TGI (MDA-N) was 43.8 µM and the TGI (MOLT-4 leukemia) was 49.5 µM. The TGI (NCI-H226 lung) was greater than 100 µM, the TGI (NCI-H23 lung) was 95 µM and the TGI (NCI-H522 lung) was 83.8 µM. For the same compound, the TGI (NCI/ADR-RES ovarian) was greater than 100 µM, the TGI (OVCAR-3 ovarian) was greater than 100 µM and the TGI (OVCAR-4 ovarian) was greater than 100 µM. It also gave a TGI (OVCAR-5 ovarian) greater than 100 µM, a TGI (OVCAR-8 ovarian) greater than 100 µM and a TGI (PC-3 prostate) greater than 100 µM. It also gave a TGI (RPMI-8226 leukemia) of 49.6 µM, a TGI (RXF 393 renal) of 96.7 µM and a TGI (SF-268 CNS) of 68 µM. It also gave a TGI (SF-295 CNS) greater than 100 µM, a TGI (SF-539 CNS) greater than 100 µM and a TGI (SK-MEL-28 melanoma) greater than 100 µM. It also gave a TGI (SK-MEL-5 melanoma) of 61.5 µM, a TGI (SK-OV-3 ovarian) greater than 100 µM and a TGI (SN12C renal) greater than 100 µM. For the same compound, the TGI (SNB-19 CNS) was 60.4 µM, the TGI (SNB-75 CNS) was greater than 100 µM and the TGI (SR leukemia) was 60.9 µM. The TGI (SW-620 colon) was greater than 100 µM, the TGI (T-47D breast) was 65.1 µM and the TGI (TK-10 renal) was greater than 100 µM. It also gave a TGI (U251 CNS) greater than 100 µM, a TGI (UACC-257 melanoma) greater than 100 µM and a TGI (UACC-62 melanoma) of 81.7 µM. The TGI (UO-31 renal) was greater than 100 µM.
